Consider three compounds from patent US8426371B2, “Biologically active extract from Dendrobium plant, use thereof and process for preparing the same” (National Yang-Ming University, priority 2007, dated 2013).

This assay has as its system RPE cells. Nature of the assay: Phagocytosis of RPE: FITC-ROS uptake, fluorescence intensity (total; ingestion with fluoro Quench dye). In kind it is cell-based. The note with it: for effect on the total phagocytosis of RPE: 0.1, 1, 10, 100 μg/ml, 24 hrs treatment in 2% FCS DMEM, then FITC-ROS 4 hrs, compared with 2% FCS; for effect on the phagocytosis of RPE (total and ingestion, FIGS. 8-15): summary based on FIGS. 8-15.

Protocol: 1×10^4 RPE cells are seeded in 96-well microplate per well, containing 5% FCS in DMEM after 48 hrs, and the medium is changed with 2% FCS in DMEM. Then different concentrations of DCMPbL6,7D2H2H3 are added respectively. After 24 hrs, 50 μl of 2×10^7 FITC-ROS/ml is added into each well. Four hours later, the unbounded FITC-ROS is washed out with PBS+2% sucrose. The emission wavelength is 485 nm and the detecting wavelength is 530 nm. The fluorescence intensity is detected by a 1420 Multilable counter (PE) measurement system. The detected fluorescence intensity represents the total phagocytosis. If the fluoro Quench dye is added, the detected fluorescence intensity represents the ingestion phagocytosis. *P<0.05, **P<0.02, ***P<0.01 and ****P<0.001 are obtained by comparing with phagocytosis of RPE treated with 2% FCS.
1×10^4 RPE cells are seeded in 96-well microplate per well, containing 5% FCS in DMEM after 48 hrs, and the medium is changed with 2% FCS in DMEM. Then different concentrations of DCMPbL6,7D2H2H3H2 are added respectively. After 24 hrs, 50 μl of 2×10^7 FITC-ROS/ml is added into each well. Four hours later, the unbounded FITC-ROS is washed out with PBS+2% sucrose. The emission wavelength is 485 nm and the detecting wavelength is 530 nm. The fluorescence intensity is detected by a 1420 Multilable counter (PE) measurement system. The detected fluorescence intensity represents the total phagocytosis. If the fluoro Quench dye is added, the detected fluorescence intensity represents the ingestion phagocytosis. *P<0.05, **P<0.02, ***P<0.01 and ****P<0.001 are obtained by comparing with phagocytosis of RPE treated with 2% FCS.
1×10^4 RPE cells are seeded in 96-well microplate per well, containing 5% FCS in DMEM after 48 hrs, and the medium is changed with 2% FCS in DMEM. Then different concentrations of DCMPbL6,7D2H2H3H3 are added respectively. After 24 hrs, 50 μl of 2×10^7 FITC-ROS/ml is added into each well. Four hours later, the unbounded FITC-ROS is washed out with PBS+2% sucrose. The emission wavelength is 485 nm and the detecting wavelength is 530 nm. The fluorescence intensity is detected by a 1420 Multilable counter (PE) measurement system. The detected fluorescence intensity represents the total phagocytosis. If the fluoro Quench dye is added, the detected fluorescence intensity represents the ingestion phagocytosis. *P<0.05, **P<0.02, ***P<0.01 and ****P<0.001 are obtained by comparing with phagocytosis of RPE treated with 2% FCS.
1×10^4 RPE cells are seeded in 96-well microplate per well, containing 5% FCS in DMEM after 48 hrs, and the medium is changed with 2% FCS in DMEM. Then different concentrations of DCMPbL6,7D2H2H3H4 are added respectively. After 24 hrs, 50 μl of 2×10^7 FITC-ROS/ml is added into each well.

Turning to `O=c1cc(-c2ccc(O)cc2)oc2c([C@@H]3OC[C@@H](O)[C@@H](O)[C@@H]3O)c(O)c([C@@H]3OC[C@H](O)[C@H](O)[C@H]3O)c(O)c12` [DCMPbL6,7D2H2H3H4, apigenin 6-C-α-L-Arabinopyranosyl-8-C-β-D-arabinopyranoside], the “effect on the total phagocytosis of RPE” value is reported as “can accelerate the phagocytosis of RPE”; the “effect on the phagocytosis of RPE (total and ingestion, FIGS. 8-15)” value (shortened to “effect on the phagocytosis of RPE”) is “could accelerate the phagocytosis of RPE”.

`O=c1cc(-c2ccc(O)cc2)oc2c([C@@H]3OC[C@H](O)[C@H](O)[C@H]3O)c(O)c([C@@H]3OC[C@@H](O)[C@H](O)[C@H]3O)c(O)c12` [DCMPbL6,7D2H2H3H2, apigenin 6-C-β-D-Xylopyranosyl-8-C-α-L-arabinopyranoside]: the “effect on the total phagocytosis of RPE” value is given as “can accelerate the phagocytosis of RPE”; the “effect on the phagocytosis of RPE” value is recorded as “could accelerate the phagocytosis of RPE”.

Regarding `O=c1cc(-c2ccc(O)cc2)oc2c([C@@H]3OC[C@H](O)[C@H](O)[C@H]3O)c(O)c([C@@H]3OC[C@H](O)[C@H](O)[C@H]3O)c(O)c12` [DCMPbL6,7D2H2H3H3, apigenin 6,8-Di-C-α-L-arabinopyranoside], the “effect on the total phagocytosis of RPE” value is “can accelerate the phagocytosis of RPE”; the “effect on the phagocytosis of RPE” value is given as “could accelerate the phagocytosis of RPE”.
